Test results as given in the supplement of paper PMC11451515.

Test system: SEM cells
Assay: cell viability relative to DMSO control; higher = less cytotoxic
Conditions: 48 h
Method in brief: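 Viability values are per-plate percentages of DMSO wells, with background from cell-free wells. Library compounds in DMSO were pin-dosed, in an 11-point threefold series from 47 μM to 0.79 nM, onto NOMO1 or SEM (500 cells/well) or P12-Ichikawa (1000 cells/well) leukemia cells in 1536-well plates (5 μl). Those cells had been adapted for at least four passages in each medium, and CellTiter-Glo One luminescence was read after 48 h at 37°C.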

[1] = HPLM + 10% dialyzed FBS, 0.000781 µM
[2] = HPLM + 10% dialyzed FBS, 0.00234 µM
[3] = HPLM + 10% dialyzed FBS, 0.00702 µM
[4] = HPLM + 10% dialyzed FBS, 0.0211 µM
[5] = HPLM + 10% dialyzed FBS, 0.0632 µM
[6] = HPLM + 10% dialyzed FBS, 0.19 µM
[7] = HPLM + 10% dialyzed FBS, 0.569 µM
[8] = HPLM + 10% dialyzed FBS, 1.71 µM
[9] = HPLM + 10% dialyzed FBS, 5.12 µM
[10] = HPLM + 10% dialyzed FBS, 15.4 µM
[11] = HPLM + 10% dialyzed FBS, 46.1 µM
[12] = RPMI 5 mM glucose + 10% FBS, 0.000781 µM
[13] = RPMI 5 mM glucose + 10% FBS, 0.00234 µM
[14] = RPMI 5 mM glucose + 10% FBS, 0.00702 µM
[15] = RPMI 5 mM glucose + 10% FBS, 0.0211 µM
[16] = RPMI 5 mM glucose + 10% FBS, 0.0632 µM
[17] = RPMI 5 mM glucose + 10% FBS, 0.19 µM
[18] = RPMI 5 mM glucose + 10% FBS, 0.569 µM
[19] = RPMI 5 mM glucose + 10% FBS, 1.71 µM
[20] = RPMI 5 mM glucose + 10% FBS, 5.12 µM
[21] = RPMI 5 mM glucose + 10% FBS, 15.4 µM
[22] = RPMI 5 mM glucose + 10% FBS, 46.1 µM
[23] = RPMI 5 mM glucose + 10% dialyzed FBS, 0.000781 µM
[24] = RPMI 5 mM glucose + 10% dialyzed FBS, 0.00234 µM
[25] = RPMI 5 mM glucose + 10% dialyzed FBS, 0.00702 µM
[26] = RPMI 5 mM glucose + 10% dialyzed FBS, 0.0211 µM
[27] = RPMI 5 mM glucose + 10% dialyzed FBS, 0.0632 µM
[28] = RPMI 5 mM glucose + 10% dialyzed FBS, 0.19 µM
[29] = RPMI 5 mM glucose + 10% dialyzed FBS, 0.569 µM
[30] = RPMI 5 mM glucose + 10% dialyzed FBS, 1.71 µM
[31] = RPMI 5 mM glucose + 10% dialyzed FBS, 5.12 µM
[32] = RPMI 5 mM glucose + 10% dialyzed FBS, 15.4 µM
[33] = RPMI 5 mM glucose + 10% dialyzed FBS, 46.1 µM

| SMILES | cell viability [1] | cell viability [2] | cell viability [3] | cell viability [4] | cell viability [5] | cell viability [6] | cell viability [7] | cell viability [8] | cell viability [9] | cell viability [10] | cell viability [11] | cell viability [12] | cell viability [13] | cell viability [14] | cell viability [15] | cell viability [16] | cell viability [17] | cell viability [18] | cell viability [19] | cell viability [20] | cell viability [21] | cell viability [22] | cell viability [23] | cell viability [24] | cell viability [25] | cell viability [26] | cell viability [27] | cell viability [28] | cell viability [29] | cell viability [30] | cell viability [31] | cell viability [32] | cell viability [33] |
| --- | --- | --- | --- | --- | --- | --- | --- | --- | --- | --- | --- | --- | --- | --- | --- | --- | --- | --- | --- | --- | --- | --- | --- | --- | --- | --- | --- | --- | --- | --- | --- | --- | --- |
| CCc1nc(N)nc(N)c1-c1ccc(Cl)cc1 | 89% | 95% | 68.1% | 108% | 115% | 106% | 98.9% | 63% | 41% | 47.6% | 36.6% | 77% | 81.2% | 63.4% | 91.9% | 97.1% | 99.3% | 93% | 87.3% | 36% | 93.9% | 83.6% | 77.4% | 92.2% | 70.5% | 96.5% | 98.4% | 92.4% | 95.3% | 101% | 48.6% | 85.9% | 46.6% |
| C[C@]12CC[C@H]3[C@@H](CC[C@@]45O[C@@H]4C(O)=C(C#N)C[C@]35C)[C@@H]1CC[C@@H]2O | 89.7% | 79.7% | 102% | 97.3% | 109% | 106% | 108% | 111% | 89.6% | 86.3% | 12.4% | 90.9% | 84.7% | 95.5% | 86% | 90.4% | 81.4% | 75.4% | 84.6% | 56.9% | 58.8% | 4.92% | 116% | 107% | 121% | 105% | 114% | 102% | 110% | 110% | 87.2% | 52.8% | 5.45% |
| Cn1cnc(N)c2ncnc1-2 | 80.5% | 96.4% | 111% | 103% | 109% | 88.9% | 112% | 80.3% | 32% | 5% | 4.54% | 90.9% | 99% | 92.9% | 87.1% | 87.8% | 99.5% | 87.2% | 63.6% | 14.7% | 4.31% | 3.65% | 108% | 109% | 115% | 84.9% | 112% | 98.6% | 118% | 82.6% | 24.8% | 5.27% | 4.09% |
| Cc1cnc(Nc2cccc(CN3CCOCC3)c2)nc1Nc1cccc([S+](=O)([O-])NC(C)(C)C)c1 | 77.4% | 80.3% | 97.3% | 91.7% | 74.4% | 72.1% | 84.7% | 36.4% | 15.7% | 69.1% | 53.6% | 79.7% | 88.8% | 94.5% | 110% | 82.1% | 87.9% | 79% | 58% | 9.88% | 74% | 21.9% | 79.6% | 93.5% | 93.5% | 84.9% | 72.5% | 64% | 81.8% | 17.9% | 9.6% | 66.4% | 39.3% |
| CCCC[S+](=N)([O-])CCC(N)C(=O)O (stereo not given) | 87.1% | 78.5% | 102% | 107% | 124% | 108% | 132% | 102% | 109% | 97.5% | 41.6% | 114% | 109% | 136% | 131% | 113% | 136% | 128% | 104% | 125% | 103% | 84.6% | 120% | 108% | 131% | 122% | 137% | 140% | 128% | 146% | 157% | 111% | 120% |
| CN(C[C@@H]1COCCO1)[S+]([O-])(=O)NC2=CC3=C(C=C2)\C=C/C4=C(C=C(C=N4)C5=C[N](C)N=C5)C3=O | 85.5% | 93.9% | 92.6% | 86.4% | 79.5% | 80.8% | 69.9% | 48.8% | 29.8% | 22.4% | 24.8% | 113% | 86.6% | 110% | 109% | 85.5% | 76.3% | 53.1% | 35.2% | 22.2% | 16% | 16.4% | 78.9% | 96.4% | 91.2% | 86.8% | 85.2% | 66.3% | 60.8% | 38.5% | 24.5% | 17.3% | 18.3% |
| CC(C)[C@H](O)C(=O)N[C@@H](C)C(=O)N[C@@H]1C(=O)N(C)CCc2ccccc21 | 118% | 122% | 127% | 111% | 132% | 82.7% | 119% | 110% | 74% | 110% | 107% | – | – | – | – | – | – | – | – | – | – | – | 120% | 135% | 116% | 103% | 119% | 94.6% | 97.5% | 109% | 38.1% | 106% | 95.7% |
